Experimental data from BigSolDB 2.1.

COc1cc(C2Oc3cc(C4Oc5cc(O)cc(O)c5C(=O)C4O)ccc3OC2CO)ccc1O (stereo not given)
Conditions | solubility (mole fraction)
in PEG-400, 298.15 K | 0.24
in PEG-400, 303.15 K | 0.26
in PEG-400, 313.15 K | 0.29
in PEG-400, 323.15 K | 0.34
in PEG-400, 333.15 K | 0.38

solubility (mole fraction)
Conditions | 298.15 K | 303.15 K | 313.15 K | 323.15 K | 333.15 K
in ethanol | 0.0167 | 0.0174 | 0.0193 | 0.0208 | 0.0227
in isopropanol | 0.00448 | 0.00477 | 0.00524 | 0.00593 | 0.00662
in water | 1.46e-05 | 1.68e-05 | 2.09e-05 | 2.54e-05 | 3.06e-05
